One test concerns the target sGC α1/β1 heterodimer (Homo sapiens (Human), UniProt Q02108+Q02153). The test can be described thus: Cell-based sGC functional assay (CASA assay), cGMP by HTRF. Particulars: CHO-K1/sGC cells; for Emax: CHO-K1, cGMP production as percentage of maximum of compound A (set to 100%), read-out: % Activation; for EC50: inflection point of cGMP production, 4P fit, read-out: IP. An outline of the steps: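 CHO-K1 cells stably expressing human sGC α1/β1, with 0.5 mM IBMX, pre-incubated ±1 μM DETA-NO 30 min at 25° C, then compound 1 hr at 37° C (2.5% DMSO). cGMP by HTRF; activation as % of reference activator maximum, 4P fit giving inflection point and maximum […].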
On the technique in general: TR-FRET usually uses a lanthanide donor and a delayed reading to cut background.

In test [1] the target is human recombinant sGC enzyme (Homo sapiens (Human), UniProt Q02108+Q02153). The test can be described thus: SEC competition binding assay with [3H] Compound B radioligand. The conditions noted are these: displacement of 1.6 nM [3H] Compound B, 24 h at 37° C. An outline of the steps:
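Recombinant human sGC incubated with 1.6 nM [3H] Compound B and test compounds for 24 h at 37° C. Buffer: 50 mM triethanolamine pH 7.4, 3 mM MgCl2, 0.025% BSA, 2 mM DTT, 300 μM DETA/NO, 400 μM GTP, 1% DMSO. Bound ligand separated by gel filtration and counted by scintillation; non-specific binding with 1 μM Compound B; Ki from one-site fit.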

This is an account of results in US10780092B2, “Fused pyrazine derivatives useful as soluble guanylate cyclase stimulators” (Merck Sharp & Dohme Corp., priority 2016, dated 2020).

In general, Ki refers to the dissociation constant of the complex between target and ligand, obtained from inhibition or displacement. Turning to `CC1(c2ccc(C(F)(F)F)c(O)c2)C(=O)Nc2nc(-c3cn4ccnc4c(Cc4cccc(F)c4)n3)nc(N)c21` (stereo not drawn) [Example 17-B, 4-Amino-2-{8-[(3-fluorophenyl)methyl]imidazo[1,2-a]pyrazin-6-yl}-5-(3-hydroxy-4-(trifluoromethyl)phenyl)-5-methyl-5,7-dihydro-6H-pyrrolo[2,3-d]pyrimidin-6-one], on sGC α1/β1 heterodimer, the Emax was 117% and the EC50 came out at 482 nM. Besides, the Ki in test [1] stood at 0.163 nM.

`CC1(c2ccc(O)c(Cl)c2)C(=O)Nc2nc(-c3cn4ccnc4c(Cc4cccc(F)c4)n3)nc(N)c21` (stereo not drawn) [Example 35-B, 4-Amino-5-(3-chloro-4-hydroxyphenyl)-2-{8-[(3-fluorophenyl)methyl]imidazo[1,2-a]pyrazin-6-yl}-5-methyl-5,7-dihydro-6H-pyrrolo[2,3-d]pyrimidin-6-one]: at sGC α1/β1 heterodimer, the Emax amounted to 147% and the EC50 turned out to be 402 nM. The Ki in test [1] was 0.333 nM.

Consider `CC(C)CCc1nc(-c2nc(N)c3c(n2)NC(=O)C3(C)c2cc(O)c(Cl)cn2)cn2ccnc12` (stereo not drawn) [Example 57-B, 4-Amino-5-(5-chloro-4-hydroxypyridin-2-yl)-2-(8-isopentylimidazo[1,2-a]pyrazin-6-yl)-5-methyl-5,7-dihydro-6H-pyrrolo[2,3-d]pyrimidin-6-one], for which, at sGC α1/β1 heterodimer, the Emax was 67% and the EC50 was determined as 798 nM. Further, in test [1], the Ki was 1.24 nM.

With `CC1(c2cccc(O)c2)C(=O)Nc2nc(-c3cn4ccnc4c(Cc4ccc(F)cc4)n3)nc(N3CCC(F)(F)CC3)c21` (stereo not drawn) [Example 135-B, 4-(4,4-Difluoropiperidin-1-yl)-2-{8-[(4-fluoro-phenyl)methyl]imidazo-[1,2-a]-pyrazin-6-yl}-5-(3-hydroxyphenyl)-5-methyl-5,7-dihydro-6H-pyrrolo[2,3-d]pyrimidin-6-one], at sGC α1/β1 heterodimer, the Emax was 103% and the EC50 was found to be 966 nM. Also, the inhibition constant (Ki) in test [1] turned out to be 4.01 nM.

Take `CC1(c2cc(O)c(C(F)(F)F)cn2)C(=O)Nc2nc(-c3cn4ccnc4c(Cc4ccccc4F)n3)nc(N)c21` (stereo not drawn) [Example 146-B, 4-amino-2-(8-{2-fluorobenzyl}imidazo-[1,2-a]pyrazin-6-yl)-5-(4-hydroxy-5-(trifluoromethyl)-pyridin-2-yl)-5-methyl-5,7-dihydro-6H-pyrrolo-[2,3-d]pyrimidin-6-one]: at sGC α1/β1 heterodimer, the Emax came to 96% and the EC50 was found to be 2350 nM. The Ki in test [1] came out at 0.378 nM.

For `CC1(c2ccc(Cl)c(O)c2Cl)C(=O)Nc2nc(-c3cn4ncnc4c(CC4CCCCC4)n3)nc(N)c21` (stereo not drawn) [Example 67-A, 4-Amino-2-(8-(cyclohexylmethyl)-[1,2,4]triazolo[1,5-a]pyrazin-6-yl)-5-(2,4-dichloro-3-hydroxyphenyl)-5-methyl-5,7-dihydro-6H-pyrrolo[2,3-d]pyrimidin-6-one], at sGC α1/β1 heterodimer, the Emax stood at 134% and the EC50 stood at 728 nM. Moreover, the Ki in test [1] was determined as 2.65 nM.

For the molecule `CC1(c2cc(O)c(C#N)c(F)c2)C(=O)Nc2nc(-c3cn4ncnc4c(Cc4cc(F)cc(F)c4)n3)nc(N)c21` (stereo not drawn) [Example 27-B, 4-(4-Amino-2-{8-[(3,5-difluorophenyl)methyl]-[1,2,4]triazolo[1,5-a]pyrazin-6-yl}-5-methyl-6-oxo-6,7-dihydro-5H-pyrrolo[2,3-d]pyrimidin-5-yl)-2-fluoro-6-hydroxybenzonitrile], on sGC α1/β1 heterodimer, the Emax came to 94% and the EC50 was 489 nM. In addition, the inhibition constant (Ki) in test [1] was 0.28 nM.

As to `CC1(c2ccc(C(F)(F)F)c(O)c2)C(=O)Nc2nc(-c3cn4ccnc4c(Cc4cc(F)cc(F)c4)n3)nc(N)c21` (stereo not drawn) [Example 46-B, 4-Amino-2-{8-[(3,5-difluorophenyl)methyl]imidazo[1,2-a]pyrazin-6-yl}-5-(3-hydroxy-4-(trifluoromethyl)phenyl)-5-methyl-5,7-dihydro-6H-pyrrolo[2,3-d]pyrimidin-6-one], on sGC α1/β1 heterodimer, the Emax came out at 117% and the EC50 is 893 nM. In test [1], the inhibitory constant (Ki) turned out to be 0.691 nM.

Turning to `CC1(c2ccc(F)c(O)c2)C(=O)Nc2nc(-c3cn4ncnc4c(CCC(F)(F)C(F)(F)F)n3)nc(N)c21` (racemic) [Example 114-B, 4-Amino-5-(4-fluoro-3-hydroxyphenyl)-5-methyl-2-(8-(3,3,4,4,4-pentafluorobutyl)-[1,2,4]-triazolo[1,5-a]pyrazin-6-yl)-5,7-dihydro-6H-pyrrolo(2,3-d]pyrimidin-6-one], at sGC α1/β1 heterodimer, the Emax amounted to 112% and the EC50 was 137 nM. Further, the Ki in test [1] turned out to be 4.95 nM.

For `CCCCc1nc(-c2nc(N)c3c(n2)NC(=O)C3(C)c2cccc(O)c2)cn2ncnc12` (stereo not drawn) [Example 68-B, 4-Amino-2-(8-butyl-[1,2,4]triazolo[1,5-a]pyrazin-6-yl)-5-(3-hydroxyphenyl)-5-methyl-5,7-dihydro-6H-pyrrolo[2,3-d]pyrimidin-6-one], at sGC α1/β1 heterodimer, the Emax is 96% and the EC50 is 46 nM. Besides, the inhibitory constant (Ki) in test [1] came out at 2.92 nM.

Turning to `CC1(c2cc(O)c(C(F)(F)F)cn2)C(=O)Nc2nc(-c3cn4ccnc4c(Cc4cccc(F)c4)n3)nc(N)c21` (stereo not drawn) [Example 145-B, 4-amino-2-(8-{3-fluorobenzyl}imidazo-[1,2-a]pyrazin-6-yl)-5-(4-hydroxy-5-(trifluoromethyl)pyridin-2-yl)-5-methyl-5,7-dihydro-6H-pyrrolo-[2,3-d]pyrimidin-6-one], on sGC α1/β1 heterodimer, the Emax was 91% and the EC50 worked out at 2440 nM. The Ki in test [1] was 0.416 nM.

For `CC1(c2ccc(O)c(F)c2)C(=O)Nc2nc(-c3cn4ncnc4c(CCC(F)(F)C(F)(F)F)n3)nc(N)c21` (racemic) [Example 116-B, 4-Amino-5-(3-fluoro-4-hydroxyphenyl)-5-methyl-2-(8-(3,3,4,4,4-pentafluorobutyl)-[1,2,4]triazolo[1,5-a]pyrazin-6-yl)-5,7-dihydro-6H-pyrrolo-[2,3-d]pyrimidin-6-one], on sGC α1/β1 heterodimer, the Emax stood at 137% and the EC50 worked out at 95 nM. In addition, the Ki in test [1] is 6.37 nM.

In the case of `CC1(c2ccc(Cl)c(O)c2)C(=O)Nc2nc(-c3cn4ncnc4c(Cc4ccc(F)cc4)n3)nc(N)c21` (stereo not drawn) [Example 26-A, 4-Amino-5-(4-chloro-3-hydroxyphenyl)-2-{8-[(4-fluorophenyl)methyl]-[1,2,4]triazolo[1,5-a]pyrazin-6-yl}-5-methyl-5,7-dihydro-6H-pyrrolo[2,3-d]pyrimidin-6-one], on sGC α1/β1 heterodimer, the Emax was found to be 105% and the EC50 amounted to 426 nM. In addition, the Ki in test [1] was 0.276 nM.

Turning to `CC1(c2ccc(O)cc2)C(=O)Nc2nc(-c3cn4ccnc4c(CCC4CCCCC4)n3)nc(N)c21` (stereo not drawn) [Example 85-B, 4-Amino-2-(8-(2-cyclohexylethyl)imidazo[1,2-a]pyrazin-6-yl)-5-(4-hydroxyphenyl)-5-methyl-5,7-dihydro-6H-pyrrolo[2,3-d]pyrimidin-6-one], at sGC α1/β1 heterodimer, the Emax worked out at 130% and the EC50 came to 605 nM. In test [1], the Ki was 4.82 nM.

On to `CC1(c2ccc(Cl)c(O)c2)C(=O)Nc2nc(-c3cn4ccnc4c(Cc4ccc(F)cc4)n3)nc(NCC(O)C(F)(F)F)c21` (single isomer, unassigned) [Example 132-AA, 5-(4-Chloro-3-hydroxy-phenyl)-2-{8-[(4-fluoro-phenyl)methyl]imidazo-[1,2-a]pyrazin-6-yl}-5-methyl-4-[(3,3,3-trifluoro-2-hydroxy-propyl)amino]-5,7-dihydro-6H-pyrrolo-[2,3-d]-pyrimidin-6-one], for which, on sGC α1/β1 heterodimer, the Emax was found to be 99% and the EC50 stood at 746 nM. In test [1], the Ki was found to be 1.21 nM.
